Here are results for two compounds from paper PMC10803253, “Structural insights into the iron nitrogenase complex” (Nature Structural & Molecular Biology, 2023).

The target in assay [1] is T1, Fe nitrogenase catalytic component, AnfD FeFeco site, in the Anf(DGK)2(H2)2 complex (Rhodobacter capsulatus, UniProt D5ANJ7).
T1 construct: C-terminal Strep-tag II on AnfD, N-terminal His6-tag on AnfH, no linkers; plasmid expression in R. capsulatus MM0436; AlF3-trapped Anf(DGK)2(H2)2; with Nitrogenase iron-iron protein beta chain; Nitrogenase iron-iron protein delta chain; Nitrogenase iron protein (iron-iron nitrogenase reductase)
T1 sequence (D5ANJ9 entry or part of it): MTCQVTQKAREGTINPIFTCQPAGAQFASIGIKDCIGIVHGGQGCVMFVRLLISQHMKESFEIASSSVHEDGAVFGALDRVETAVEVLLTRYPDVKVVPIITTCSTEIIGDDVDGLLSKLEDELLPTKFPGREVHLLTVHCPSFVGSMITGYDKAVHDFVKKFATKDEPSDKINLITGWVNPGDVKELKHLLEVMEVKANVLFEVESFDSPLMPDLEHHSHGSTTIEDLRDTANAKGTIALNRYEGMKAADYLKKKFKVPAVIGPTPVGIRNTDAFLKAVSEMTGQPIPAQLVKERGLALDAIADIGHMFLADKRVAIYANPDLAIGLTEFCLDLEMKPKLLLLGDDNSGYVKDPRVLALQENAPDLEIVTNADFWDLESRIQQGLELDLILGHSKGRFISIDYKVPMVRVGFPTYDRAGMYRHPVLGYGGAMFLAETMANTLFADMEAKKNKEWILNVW
T1 sequence (D5ANJ6 entry or part of it, further chain): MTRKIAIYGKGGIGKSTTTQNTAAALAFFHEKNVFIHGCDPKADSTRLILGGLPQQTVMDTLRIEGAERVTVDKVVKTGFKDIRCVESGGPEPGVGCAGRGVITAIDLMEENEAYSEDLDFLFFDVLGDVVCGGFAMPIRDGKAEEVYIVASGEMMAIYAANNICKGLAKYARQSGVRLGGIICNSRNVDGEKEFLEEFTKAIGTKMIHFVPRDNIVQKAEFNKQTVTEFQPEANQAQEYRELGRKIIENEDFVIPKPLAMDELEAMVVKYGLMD
T1 sequence (D5ANJ7 entry or part of it): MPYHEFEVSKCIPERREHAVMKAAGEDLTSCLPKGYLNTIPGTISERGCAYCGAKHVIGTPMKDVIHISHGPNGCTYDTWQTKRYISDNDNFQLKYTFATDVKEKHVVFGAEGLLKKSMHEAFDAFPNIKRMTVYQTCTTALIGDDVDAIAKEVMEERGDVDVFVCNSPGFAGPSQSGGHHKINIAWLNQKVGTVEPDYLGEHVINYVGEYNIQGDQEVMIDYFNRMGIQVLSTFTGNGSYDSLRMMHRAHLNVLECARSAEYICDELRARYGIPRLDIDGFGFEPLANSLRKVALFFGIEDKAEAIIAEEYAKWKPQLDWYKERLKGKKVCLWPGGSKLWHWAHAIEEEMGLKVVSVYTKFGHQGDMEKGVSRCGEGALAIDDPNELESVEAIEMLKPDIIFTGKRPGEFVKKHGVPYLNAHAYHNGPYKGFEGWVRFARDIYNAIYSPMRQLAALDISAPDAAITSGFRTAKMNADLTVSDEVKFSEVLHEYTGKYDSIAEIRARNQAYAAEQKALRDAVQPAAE
T1 sequence (D5ANJ8 entry or part of it, further chain): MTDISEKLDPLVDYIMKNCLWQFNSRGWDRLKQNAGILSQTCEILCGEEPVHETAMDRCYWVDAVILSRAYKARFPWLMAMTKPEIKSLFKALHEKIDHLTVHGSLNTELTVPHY
In words: cryo-EM structure ([…] Å). In kind it is binding. The note with it: bidentate ligand of FeFeco iron Fe8 via 2-hydroxyl and 2-carboxyl; co-purified; ADP·AlF3-trapped complex.

Assay [2] addresses T2, Fe nitrogenase reductase component AnfH2 in the Anf(DGK)2(H2)2 complex (Rhodobacter capsulatus, UniProt D5ANJ6).
T2 construct: gene anfH; N-terminal His6-tag on AnfH, C-terminal Strep-tag II on AnfD, no linkers; plasmid expression in R. capsulatus MM0436; AlF3-trapped Anf(DGK)2(H2)2, ~360 kDa by mass photometry; with Nitrogenase iron-iron protein alpha chain; Nitrogenase iron-iron protein beta chain; Nitrogenase iron-iron protein delta chain
In words: cryo-EM structure ([…] Å). Type of assay: binding. The note with it: covalent (Cys97 and Cys132 of two AnfH subunits); co-purified.

T2 sequence (D5ANJ6 1-275): as the sequence (D5ANJ6 entry or part of it, further chain) above
T2 sequence (D5ANJ7 1-527 partner): as the sequence (D5ANJ7 entry or part of it) above
T2 sequence (D5ANJ9 1-460 partner): as the sequence (D5ANJ9 entry or part of it) above
T2 sequence (D5ANJ8 1-115 partner): as the sequence (D5ANJ8 entry or part of it, further chain) above

As to `O=C(O)CC[C@@](O)(CC(=O)O)C(=O)O` [(R)-homocitrate], the “cryo-EM structure (2.35 Å)” value in assay [1] is on record as “additionally coordinated by a bidentate (R)-homocitrate ligand that binds the iron atom”.

On to `[S]12[Fe]3[S]4[Fe]1[S]1[Fe]2[S]3[Fe]41` [[Fe4S4] cluster], for which the “cryo-EM structure (2.35 Å)” value in assay [2] was “we observed an [Fe4S4] cluster coordinated by Cys97 and Cys132”.
